Test results from article PMC6151383 (Molecules : A Journal of Synthetic Chemistry and Natural …, 2017).
≈ marks a conversion by molar mass, not a printed value. Like-named read-outs stand apart in the source and are kept apart here.

Key:
[1] = test system: Staphylococcus aureus CCM 4516/08; assay: Antibacterial microdilution broth MIC, S. aureus; assay type: cell-based; details: Staphylococcus aureus
[2] = test system: Staphylococcus epidermidis H 6966/08; assay: Antibacterial microdilution broth MIC, S. epidermidis; assay type: cell-based; details: Staphylococcus epidermidis, H6966/08
[3] = test system: Enterococcus faecalis J 14365/08; assay: Antibacterial microdilution broth MIC, E. faecalis; assay type: cell-based; details: Enterococcus faecalis, J14365/08; 48 h incubation; read-out: MIC EF 48 h
[4] = test system: Escherichia coli CCM 4517; assay: Antibacterial microdilution broth MIC, E. coli; assay type: cell-based; details: Escherichia coli, CCM4517; 48 h incubation; read-out: MIC EC 48 h
[5] = test system: Pseudomonas aeruginosa CCM 1961; assay: Antibacterial microdilution broth MIC, P. aeruginosa; assay type: cell-based; details: Pseudomonas aeruginosa, CCM1961; 48 h incubation; read-out: MIC PA 48 h
[6] = test system: Mycobacterium tuberculosis 331/88 (H37Rv); assay: In vitro antimycobacterial MIC, M. tuberculosis; assay type: cell-based
[7] = test system: Mycobacterium avium 330/88; assay: In vitro antimycobacterial MIC, M. avium; assay type: cell-based
[8] = test system: Mycobacterium kansasii 235/80; assay: In vitro antimycobacterial MIC, M. kansasii 235/80; assay type: cell-based
M. kansasii 6509/96 = assay: In vitro antimycobacterial MIC, M. kansasii clinical isolate; assay type: cell-based; details: Mycobacterium kansasii
[9] = test system: Candida albicans ATCC 44859; assay: Antifungal microdilution broth MIC, C. albicans; assay type: cell-based
Candida tropicalis 156 = assay: Antifungal microdilution broth MIC, C. tropicalis; assay type: cell-based
Candida krusei E28 = assay: Antifungal microdilution broth MIC, C. krusei; assay type: cell-based; details: Pichia kudriavzevii
Candida glabrata 20/I = assay: Antifungal microdilution broth MIC, C. glabrata; assay type: cell-based; details: Nakaseomyces glabratus, 48 h incubation, read-out: MIC CG 48 h
Trichosporon asahii 1188 = assay: Antifungal microdilution broth MIC, T. asahii; assay type: cell-based
[10] = test system: Aspergillus fumigatus 231; assay: Antifungal microdilution broth MIC, A. fumigatus; assay type: cell-based
[11] = test system: Lichtheimia corymbifera 272; assay: Antifungal microdilution broth MIC, L. corymbifera; assay type: cell-based; details: Lichtheimia corymbifera, 272; 48 h incubation; read-out: MIC LC 48 h
[12] = test system: Trichophyton interdigitale 445; assay: Antifungal microdilution broth MIC, T. interdigitale; assay type: cell-based
[13] = test system: yeasts (Candida sp., T. asahii); assay: Antifungal activity against yeasts; assay type: cell-based; details: read-out: MIC for yeasts
[14] = test system: Klebsiella pneumoniae D 11750/08
[15] = test system: ESBL-positive Klebsiella pneumoniae J 14368/08
[16] = 48 h incubation, read-out: MIC SE 48 h
[17] = 336 h, 14 d incubation, read-out: MIC Mtb. 331/88 14 d
[18] = 504 h, 21 d incubation, read-out: MIC Mtb. 331/88 21 d
[19] = 330/88, 336 h, 14 d incubation, read-out: MIC M. avium 330/88 14 d
[20] = 330/88, 504 h, 21 d incubation, read-out: MIC M. avium 330/88 21 d
[21] = 235/80, 168 h, 7 d incubation, read-out: MIC M. kansasii 235/80 7 d
[22] = 235/80, 336 h, 14 d incubation, read-out: MIC M. kansasii 235/80 14 d
[23] = 235/80, 504 h, 21 d incubation, read-out: MIC M. kansasii 235/80 21 d
[24] = 6509/96, 168 h, 7 d incubation, read-out: MIC M. kansasii 6509/96 7 d
[25] = 6509/96, 336 h, 14 d incubation, read-out: MIC M. kansasii 6509/96 14 d
[26] = 6509/96, 504 h, 21 d incubation, read-out: MIC M. kansasii 6509/96 21 d

Structure (SMILES)	MIC [2, 16] [µM]	MIC [3] [µM]	MIC [4] [µM]	MIC [5] [µM]	MIC [6, 17] [µM]	MIC [6, 18] [µM]	MIC [7, 19] [µM]	MIC [7, 20] [µM]	MIC [8, 21] [µM]	MIC [8, 22] [µM]	MIC [8, 23] [µM]	MIC (M. kansasii 6509/96; [24]) [µM]	MIC (M. kansasii 6509/96; [25]) [µM]	MIC (M. kansasii 6509/96; [26]) [µM]	MIC (Candida glabrata 20/I) [µM]	MIC [11] [µM]	MIC KP 24 h [14] [µM]	MIC KP 48 h [14] [µM]	MIC KP-E 24 h [15] [µM]	MIC KP-E 48 h [15] [µM]	further results
O=S(=O)(Nc1ncccn1)c1ccc(N=Cc2cc(Cl)cc(Cl)c2O)cc1 [Compound 2m, 4-[(3,5-Dichloro-2-hydroxybenzylidene)amino]-N-(pyrimidin-2-yl)benzenesulfonamide]	31.2 (≈ 13.2 µg/mL)	> 500	> 500	> 500	125 (≈ 52.9 µg/mL)	125 (≈ 52.9 µg/mL)	250 (≈ 106 µg/mL)	500 (≈ 212 µg/mL)	125 (≈ 52.9 µg/mL)	250 (≈ 106 µg/mL)	500 (≈ 212 µg/mL)	62.5 (≈ 26.5 µg/mL)	125 (≈ 52.9 µg/mL)	250 (≈ 106 µg/mL)	31.2 (≈ 13.2 µg/mL)	500 (≈ 212 µg/mL)	>500	>500	500 (≈ 212 µg/mL)	500 (≈ 212 µg/mL)	MIC ([1]; CCM4516, 24 h, read-out: MIC SA 24 h): 62.5 µM (≈ 26.5 µg/mL); MIC ([1]; CCM4516, 48 h, read-out: MIC SA 48 h): 62.5 µM (≈ 26.5 µg/mL); MIC ([9]; ATCC44859, 24 h, read-out: MIC CA 24 h): 62.5 µM (≈ 26.5 µg/mL); MIC ([9]; ATCC44859, 48 h, read-out: MIC CA 48 h): 62.5 µM (≈ 26.5 µg/mL); MIC (Candida tropicalis 156; Candida tropicalis, 156, 24 h, read-out: MIC CT 24 h): 125 µM (≈ 52.9 µg/mL); MIC (Candida tropicalis 156; Candida tropicalis, 156, 48 h, read-out: MIC CT 48 h): 125 µM (≈ 52.9 µg/mL); MIC (Candida krusei E28; E28, 24 h, read-out: MIC CK 24 h): 62.5 µM (≈ 26.5 µg/mL); MIC (Candida krusei E28; E28, 48 h, read-out: MIC CK 48 h): 62.5 µM (≈ 26.5 µg/mL); MIC (Trichosporon asahii 1188; Trichosporon asahii, 1188, 24 h, read-out: MIC TA 24 h): 62.5 µM (≈ 26.5 µg/mL); MIC (Trichosporon asahii 1188; Trichosporon asahii, 1188, 48 h, read-out: MIC TA 48 h): 62.5 µM (≈ 26.5 µg/mL); MIC ([10]; Aspergillus fumigatus, 231, 48 h incubation, read-out: MIC AF 48 h): 250 µM (≈ 106 µg/mL); MIC ([12]; Trichophyton interdigitale, 445, 72 h, read-out: MIC TI 72 h): 125 µM (≈ 52.9 µg/mL); MIC ([12]; Trichophyton interdigitale, 445, 120 h, read-out: MIC TI 120 h): 125 µM (≈ 52.9 µg/mL); MIC [13]: 31.2 to 125 µM (≈ 13.2 to 52.9 µg/mL)
O=S(=O)(Nc1ncccn1)c1ccc(N=Cc2cc(O)ccc2O)cc1 [Compound 2i, 4-[(2,5-Dihydroxybenzylidene)amino]-N-(pyrimidin-2-yl)benzenesulfonamide]	15.6 (≈ 5.79 µg/mL)	250 (≈ 92.6 µg/mL)	500 (≈ 185 µg/mL)	500 (≈ 185 µg/mL)	125 (≈ 46.3 µg/mL)	125 (≈ 46.3 µg/mL)	500 (≈ 185 µg/mL)	1000 (≈ 370 µg/mL)	62.5 (≈ 23.1 µg/mL)	125 (≈ 46.3 µg/mL)	125 (≈ 46.3 µg/mL)	62.5 (≈ 23.1 µg/mL)	125 (≈ 46.3 µg/mL)	125 (≈ 46.3 µg/mL)	15.6 (≈ 5.79 µg/mL)	500 (≈ 185 µg/mL)	>500	>500	>500	>500	MIC ([1]; CCM 4516 / MRSA, S. aureus incl. MRSA, incubation time not given, read-out: MIC for S. aureus): 31.2 µM (≈ 11.6 µg/mL); MIC ([1]; CCM4516, 48 h incubation, read-out: MIC SA 48 h): 31.2 µM (≈ 11.6 µg/mL); MIC ([2]; incubation time not given, read-out: MIC for S. epidermidis): 15.6 µM (≈ 5.79 µg/mL); MIC ([9]; ATCC44859, 48 h incubation, read-out: MIC CA 48 h): 15.6 µM (≈ 5.79 µg/mL); MIC (Candida tropicalis 156; Candida tropicalis, 156, 48 h incubation, read-out: MIC CT 48 h): 15.6 µM (≈ 5.79 µg/mL); MIC (Candida krusei E28; E28, 48 h incubation, read-out: MIC CK 48 h): 31.2 µM (≈ 11.6 µg/mL); MIC (Trichosporon asahii 1188; Trichosporon asahii, 1188, 48 h incubation, read-out: MIC TA 48 h): 15.6 µM (≈ 5.79 µg/mL); MIC ([10]; Aspergillus fumigatus, 231, 24 h, read-out: MIC AF 24 h): 125 µM (≈ 46.3 µg/mL); MIC ([10]; Aspergillus fumigatus, 231, 48 h, read-out: MIC AF 48 h): 125 µM (≈ 46.3 µg/mL); MIC ([12]; Trichophyton interdigitale, 445, 72 h incubation, read-out: MIC TI 72 h): 1.95 µM (≈ 0.722 µg/mL); MIC ([12]; Trichophyton interdigitale, 445, 120 h incubation, read-out: MIC TI 120 h): 1.95 µM (≈ 0.722 µg/mL); MIC ([13]; range over Candida sp. and T. asahii): 15.6 to 31.2 µM (≈ 5.79 to 11.6 µg/mL)
